Results taken from patent US20120190615A1, “METHODS AND COMPOSITIONS FOR INDUCING WEIGHT LOSS” (Sanford-Burnham Medical Research Institute, priority 2011, published 2012).

Assays:
[1] = system: C3H10T1/2 mesenchymal stem cells; assay: Brown fat differentiation of C3H10T1/2 mesenchymal stem cells (Oil Red O, immunoblot, qRT-PCR, MitoTracker); type: cell-based, mouse
Protocol: OXR1 expression was confirmed in the undifferentiated mesenchymal stem cell line C3H10T1/2 cells (ATCC). Cells were grown to 50-70% confluence in high glucose DMEM supplemented with 10% FBS and differentiated in standard induction media supplemented with 100 nM human orexin A (cat. No. 24470, Anaspec), vehicle, or recombinant human BMP-7 (cat. No. 4579, BioVision, a potent inducer of […] differentiation) for three days, at which time cells reached 100% confluence. Cells were then incubated in adipogenic media for 7 days in the absence of […]. Cells were then stained with Oil Red O according to the following protocol. Cells were washed twice with phosphate-buffered saline (PBS), fixed with 10% buffered formalin for 1 hour at room temperature, washed twice in PBS, stained for 30 minutes at room temperature with a filtered Oil red O (Sigma) solution (0.5% Oil red O in isopropyl alcohol), washed twice with PBS, and stored in PBS for visualization under the inverted microscope (Olympus).
Following OX treatment, greater than 90% of cells differentiated from an elongated fibroblastic morphology to a spherical one typical of differentiated fat cells. OXR1 expression in the differentiated mesenchymal cells was done using RT-PCR analysis of the OXR1 mRNA. FIG. 4 provides the Ct value OXR1 and the Ct value for 18S RNA is shown for comparison.
To determine triglyceride content, BAT was homogenized in 1 ml of saline solution and Triglycerides Reagent Kit (Pointe Scientific) was used to determine triglyceride concentration in the tissue.
Protein extracts from the treated mesenchymal cells was used to assess the expression of early adipogenic transcription factors that are known to function in adipogenesis. Specifically, immunoblotting was used to assess the expression of C/ebp-alpha, Ppar-γ1, Prdm16, Pgc1-alpha, and Ucp1 in the differentiated mesenchymal stem cells.
The expression of several adipogenic inhibitors was assessed in the differentiated mesenchymal stem cells and control cells by qRT-PCR. Undifferentiated C3H10T1/2 cells abundantly express Necdin, preadpocyte factor-1 (Pref-1), and Wnt10a, all of which inhibit early adipogenic events. Preadipocytes must counteract an adipogenic block imposed by these factors in order to differentiate. […] FIG. 6 illustrates results from a PCR analysis of adipogenic inhibitors in C3H10T1/2 cells treated with BMP-7 or OX for 3 days followed by adipogenic induction for 7 days. Data are expressed as arbitrary units after normalization to 18S RNA.
The cultured mesenchymal stem cells were assessed for the expression of a variety of regulators of adipogenesis and mitochondrial function, qRT-PCR was performed as follows: RNA was isolated using Trizol lysis reagent (Qiagen) and purified by RNeasy Mini columns (Qiagen), cDNA was produced using an RT-PCR kit (Applied Biosystems) and primers synthesized by Integrated DNA Technologies, and PCR reactions were run in duplicate for each sample and quantified in the ABI Prism 7000 Sequence Detection System (Applied Biosystems) The expression of each RNA was normalized to the 18S RNA level.
Important adipogenic regulators such as C/ebp. […] Mitochondiral transcription factor (Tfam), cytochrome oxidase (Cox7a, Cox8b) and deiodinase-2 expression were elevated before exposure to adipogenic media, as shown in FIG. 10. […] Expression of stearoyl-CoA desaturase (Scd), an enzyme catalyzing the rate-limiting step in lipid biosynthesis, was also elevated over 100-fold during differentiation. mRNAs encoding other markers fatty acid oxidation such as Lp1, Sirt3, Adam15-1 and Adam15-2, and Adipor1 were enriched in differentiated mesenchymal stem cells following OX treatment (FIG. 11).
Based on the foregoing studies, three features distinguish BAT from WAT: the appearance of multilocular oil droplets, mitochondrial enrichment, and Ucp-1 expression. […]

C3H10T1/2 cells = assay: Oxygen consumption / uncoupled respiration of cultured mesenchymal stem cells; type: cell-based, mouse
Source text: To determine whether the increased respiration was uncoupled from ATP synthesis, oligomycin-insensitive respiration was first assayed as a measure of uncoupled respiration. Oligomycin inhibits F1 ATP synthetase to suppress only oxidative phosphorylation-associated respiration.

[2] = system: primary brown preadipocytes; assay: Differentiation of primary brown preadipocytes (Oil Red O); type: cell-based, mice
Source text: To assess differentiation of primary brown adipocytes, iBAT preadipocytes were isolated from 1-day-old mice and then differentiated in the presence of OX. Differentiation was confirmed by Oil Red O staining which visualizes lipid accumulation (FIG. 7). […] Taken together. OX activates a full program of brown fat adipogenesis by suppressing adipogenic inhibitors, including BAT regulators, elevating mitochondrial biogenesis and oxygen consumption, and inducing uncoupled respiration.
To investigate whether lack of OXR1 impaired BAT differentiation potential, primary brown preadipocytes from OXR1 knockout mice were isolated and differentiated. Generation of wild-type primary brown preadipocyte cell lines was derived from newborn wild-type mice as described previously by Klein et al. (Bioessays, 24: 382-388, 2002), which is hereby incorporated by reference in its entirety. Brown preadipocytes isolated from C57BL-6 mice served as positive control. All cell lines were maintained in Dulbecco's modified […] medium (DMEM), high glucose, supplemented with 10% FBS at 37° C. in a 5% CO2 environment. To induce adipogenesis, the cells were treated for 3 days with either BMP7 or 100 nM OX, at which time they were confluent. Cells were then incubated in adipogenic medium containing 0.125 mM indomethaein, […] dexamethazone, and […] 3-isobutyl-1-methyxanthine (IBMX) supplemented by 20 nM insulin as described by Tseng et al., (Nature, 454: 1000-1004, 2008) which is hereby incorporated by reference in its entirety.

[3] = cited from earlier work

orexin-A (EPLPDCCRQKTCSCRLYELLHGAGNHAAGILTL) [OX, human orexin A, cat; No. 24470, Anaspec]
cells differentiated from fibroblastic to spherical morphology typical of differentiated fat cells ([1]; 100 nM OX 3 days, then adipogenic media 7 days): greater than 90% | mitochondrial biogenesis ([1]; MitoTracker staining): induced extensive mitochondrial biogenesis | expression of stearoyl-CoA desaturase (Scd), elevation ([1]; during differentiation): over 100 fold | rate and extent of cytoplasmic triglyceride accumulation ([1]; following OX treatment): comparable to that seen following treatment with BMP-7 | expression of adipogenic transcription factors C/ebp-alpha, Ppar-γ1, Prdm16, Pgc1-alpha, Ucp1 ([1]; immunoblotting): comparable to that induced by BMP-7 | Ucp-1 and deiodinase type 2 mRNA expression ([1]; qRT-PCR): induced | mRNAs encoding inhibitory factors Necdin, Preadipocyte factor-1, Wnt10a ([1]; qRT-PCR, 3 days treatment then 7 days adipogenic induction): suppression | Pref-1 expression ([1]; qRT-PCR, normalized to 18S RNA): decreased by two orders of magnitude | adipogenic regulators C/ebp, Prdm16, Ppar-gamma, Foxc2, Zfp423 ([1]; qRT-PCR, prior to suppression of adipogenic inhibitors): significantly increased | oxygen consumption, higher (C3H10T1/2 cells; basal conditions): 15 fold | oxygen consumption of treated cells in the presence of oligomycin (C3H10T1/2 cells; oligomycin): efficiently consumed oxygen | share of OX-induced respiration uncoupled from ATP synthesis (C3H10T1/2 cells; oligomycin-insensitive respiration): More than half | differentiation of wild-type preadipocytes based on lipid accumulation ([2]; 3 days BMP7 or 100 nM OX, then adipogenic medium): enhanced differentiation | adipogenesis of iBAT preadipocytes from 1-day-old mice ([2]; differentiated in the presence of OX): robust adipogenesis within 7 days | differentiation of brown preadipocytes from OXR1-null mice ([2]; in the presence of OX): little differentiation capacity | blood-brain barrier permeation ([3]; in contrast with orexin-B): blood-brain barrier permeant | liposolubility ([3]; versus orexin-B): higher liposolubility than orexin-B | stability ([3]; versus orexin-B): much more stable than Orexin-B
